Where two headings read alike, the source gives them in different places.
Columns and labels:
[1] = tested on: human umbilical vein endothelial cells (HUVECs); conditions: cited from earlier work
[2] = tested on: rats with edema induced with carrageenan; type: in vivo; conditions: for Average edema reduction percent: average of the reduction percent values after 2, 3 and 4 hours
Method: Each experimental group was composed of three Wistar rats, and the edema was formed by subplantar injection of 0.1 ml of a 1% (w/v) lambda carrageenan solution to the left hind paw of the rats. By the same method, 0.1 ml of physiological saline was injected into the right hind paw. […] For the control, 2 ml of physiological saline was used. As for Comparative Example 1, the group was orally administered with 10 mg/kg indomethacin. The medicinal effect was assayed as percentage (%) by measuring the volume of edema from 2 hours to 4 hours in 1 hour units after carrageenan administration. [{1−S/C}×100] (S: edema volume in the preparation administration group, C: edema volume in the carrageenan administration group) The volume of edema was measured by water plethysmography. As for Preparation 16, the anti-inflammatory effect was observed by direct injection of […] into the point of carrageenan injection on the rats. This method was used considering that in the vertebral skeletal diseases, drugs are often directly injected into affected areas in clinical practice, and the method can also be applied to the herbal acupuncture in oriental medicine. In the present invention, 0.2 ml of Preparation 14 was selected and directly injected twice at an interval of 30 minutes to the point of carrageenan injection on the left hind paw of the rats (Comparative Example 6). That is, the injection was conducted at 150 minutes and 180 minutes after carrageenan injection, and the anti-inflammatory assay was conducted 240 minutes (4 hours after carrageenan injection). Comparative Example 2 was a Preparation of 1 mg of HcolA1 mixed with 1 mg of HcolA. The control was used for a physiological saline administration group.
The edema size reduction percent (%) was expressed as the ratio of the edema size by each preparation after each hour relative to the size of edema (control) by carrageenan injection after each hour as shown below, and the average reduction percent of edema was expressed as an average value of the reduction percent values of each preparation after 2, 3, or 4 hours. Edema size reduction percent (%)={1−(edema size by each preparation/edema size by control)}×100

[3] = tested on: carrageenan-induced rat paw inflammation; conditions: literature report; cited from earlier work

COC1C(=O)Oc2ccccc2C1(COC(=O)C=C(C)C)OC (centres unmarked) [4-senecioyloxymethyl-3,4-dimethoxycoumarin]
Inhibition of HUVEC angiogenesis ([1]; at 1 μg/ml): 53%

COc1ccc2c(c1)c(CC(=O)O)c(C)n2C(=O)c1ccc(Cl)cc1 [Comparative Example 1, Indomethacin]
Edema size reduction percent, 2 hours ([2]; 2 hours after carrageenan, relative to control): 0.012(63) % | Edema size reduction percent, 3 hours ([2]; 3 hours after carrageenan, relative to control): 0.043(64) % | Edema size reduction percent, 4 hours ([2]; 4 hours after carrageenan, relative to control (Comparative Example 6: direct injection into point of carrageenan injection)): 0.023(63) % | Edema size over time (hour) after treatment, 4 hours ([2]; 4 hours after carrageenan, 1 ml i.p. 1 h before edema induction (Comparative Example 1 oral; Comparative Example 6: 0.2 ml injected directly twice at 150 and 180 min), mean): 0.321 | Average edema reduction percent [2]: (63.3) % | Average edema reduction percent ([2]; listed as indomethacin): 63.3%

C[C@@H]1O[C@@H](O[C@H]2[C@H](O[C@H]3CC[C@]4(C)[C@H]5CC=C6[C@@H]7CC(C)(C)CC[C@]7(C(=O)O[C@@H]7O[C@H](CO[C@@H]8O[C@H](CO)[C@@H](O[C@@H]9O[C@@H](C)[C@H](O)[C@@H](O)[C@H]9O)[C@H](O)[C@H]8O)[C@@H](O)[C@H](O)[C@H]7O)CC[C@@]6(C)[C@]5(C)CC[C@H]4C3(C)C)OC[C@H](O[C@@H]3O[C@H](CO)[C@@H](O)[C@H](O)[C@H]3O)[C@@H]2O)[C@H](O)[C@H](O)[C@H]1O [HcolE, hederacolchiside E]
Anti-inflammatory effect on carrageenan-induced rat paw inflammation [3]: insignificant

C[C@@H]1O[C@@H](O[C@H]2[C@H](O[C@H]3CC[C@@]4(C)[C@@H](CC[C@]5(C)[C@@H]4CC=C4[C@@H]6CC(C)(C)CC[C@]6(C(=O)O[C@@H]6O[C@H](CO[C@@H]7O[C@H](CO)[C@@H](O[C@@H]8O[C@@H](C)[C@H](O)[C@@H](O)[C@H]8O)[C@H](O)[C@H]7O)[C@@H](O)[C@H](O)[C@H]6O)CC[C@]45C)[C@]3(C)CO)OC[C@H](O[C@@H]3O[C@H](CO)[C@@H](O)[C@H](O)[C@H]3O)[C@@H]2O)[C@H](O)[C@H](O)[C@H]1O [HcolF, hederacolchiside F]
Anti-inflammatory effect on carrageenan-induced rat paw inflammation [3]: confirmed in a predetermined range

CCC[C@H](CC/C=C/C=C/C#CC#C/C=C\CO)OC(C)=O [acetylbupleurotoxin]
Inhibition of HUVEC angiogenesis ([1]; at a concentration of 30 μg/ml): 100%

CCC[C@H](O)CC/C=C/C=C/C#CC#C/C=C\CO [bupleurotoxin]
Inhibition of HUVEC angiogenesis ([1]; at a concentration of 30 μg/ml): 100%

COc1cc([C@@H]2c3cc4c(cc3C[C@H]3COC(=O)[C@@H]32)OCO4)cc(OC)c1OC [deoxypodophyllotoxin]
Inhibition of HUVEC angiogenesis ([1]; at a concentration of 3 ng/ml): 100%

C[C@@H]1O[C@@H](O[C@H]2[C@H](O[C@H]3CC[C@]4(C)[C@H]5CC=C6[C@@H]7CC(C)(C)CC[C@]7(C(=O)O)CC[C@@]6(C)[C@]5(C)CC[C@H]4C3(C)C)OC[C@H](O[C@@H]3O[C@H](CO)[C@@H](O)[C@H](O)[C@H]3O)[C@@H]2O)[C@H](O)[C@H](O)[C@H]1O [hederacolchiside A1]
Inhibition of HUVEC angiogenesis ([1]; at a concentration of 2 μg/ml): 100%

C[C@@H]1O[C@@H](O[C@H]2[C@H](O[C@H]3CC[C@@]4(C)[C@@H](CC[C@]5(C)[C@@H]4CC=C4[C@@H]6CC(C)(C)CC[C@]6(C(=O)O)CC[C@]45C)[C@]3(C)CO)OC[C@H](O[C@@H]3O[C@H](CO)[C@@H](O)[C@H](O)[C@H]3O)[C@@H]2O)[C@H](O)[C@H](O)[C@H]1O [hederacolchiside A]
Inhibition of HUVEC angiogenesis ([1]; at a concentration of 2 μg/ml): did not show such activity
